# From a melting point compilation (Tetko et al.; mined from patent text by program, amines drawn as free bases though some values may be those of a salt)
row,Structure (SMILES),melting point [°C]
1,C(=C(c1ccccc1)N1CCCCC1)C1=NCCC1,123 to 124
2,C[C@]1(COc2ccc3cc(N4CCC(Oc5ccc(OC(F)(F)F)cc5)CC4)ccc3c2)Cn2cc([N+](=O)[O-])nc2O1,205 to 208
3,CC1(C)CC(S(=O)C(F)c2c(F)cccc2F)=NO1 (centres undefined),87
4,Cn1c(=O)n(Cc2ccccc2)c(=O)c2cc(C(=O)NCc3ccc4c(c3)OCO4)ccc21,215
5,CC(NC(=O)C(F)c1cc(F)cc(F)c1)C(=O)NC1N=C(c2ccccc2)c2ccccc2N(C)C1=O (centres undefined),119 to 120
6,CC1(C)OC(=O)C2=C(CCCCCC2)O1,73.5 to 74.5
7,CCOC(=O)c1c(C)n(C)c(-c2ccccc2)cc1=O,154
8,Cc1cc(-c2cc(C(F)(F)F)n3ncc(-c4cccnc4)c3n2)ccc1Cl,193
9,COc1cc2c(cc1Nc1ncc(Cl)c(Nc3ccccc3S(=O)(=O)N3CCC(O)C3)n1)CCNC(=O)C2 (centres undefined),86 to 97
10,CCOC(=O)C(=CC1(OC)C=C2OCOC2=CC1)C(=O)OCC (centres undefined),118
11,O=C(Nc1cccc2ccccc12)OCCCC(O)c1ccccc1 (centres undefined),92
12,CN(C)CCCn1ccc(-c2ccc(F)cc2)c1-c1ccncc1,93 to 95
13,COc1ccc(-c2[nH]nc3c2C(=O)c2c(NC(=O)Cc4ccc(N=[N+]=[N-])cc4)cccc2-3)cc1,> 300
14,Oc1ccc(Nc2ccn(-c3ccccc3)n2)cc1,147 to 148
15,CC(=O)COc1cc(-c2ncc(C(F)(F)F)cc2Cl)ccc1C#N,146 to 147
16,Cc1nc(N2CCN(CC3CC3(F)F)C2=O)sc1C(=O)NCc1ncco1 (centres undefined),156 to 158
17,CCOC(Cc1ccc(OCCN2COc3ccccc3C2=O)cc1)C(=O)O (centres undefined),103 to 105
18,COC(=O)N(N=Nc1cc(C(F)(F)F)ccc1C#N)c1cc(C(F)(F)F)ccc1C#N,88 to 90
19,CN(CCc1ccccc1)C(=O)Cc1ccc(OCc2ccccc2)c(/C=C/C(=O)O)c1,48 to 51
20,O=C1c2ccccc2C(=O)N1CCSc1ccc(O)cc1,124 to 125
21,O=C(O)Cc1ccc2[nH]c(=O)[nH]c2c1,161
22,CCOC(=O)/C(C)=C/CC[C@@H](C)[C@H]1CC[C@@]2(C)C3=CCC4C(C)(C)C(=O)CC[C@]4(C)C3=CC[C@]12C (some centres undefined),53 to 55
23,CCOc1cc(OCCCc2cn(-c3ccc(C(F)(F)F)cn3)nc2OC)ccc1CCC(=O)O,145 to 146

row,Structure (SMILES),melting point [°C]
1,CC(C)[C@H](O)[C@@H](CCCCOc1cc(F)ccc1F)n1nc[nH]c1=S (racemic),97
2,O=C1N(Cc2ccc(=O)[nH]c2)c2ccccc2C12COc1cc3c(cc12)OCCO3 (centres undefined),249 to 250
3,CCOC(=O)N1CCC(Nc2nc3ccccc3n2Cc2ccoc2C)CC1,150
4,CCOC(=O)C(=O)CC(=O)c1cn(CCCCc2ccccc2)c2ccccc2c1=O,88 to 90
5,COc1ccc(OC)c(C=CC(=O)C2C(=O)OC(=O)C(C(C)=O)=C2O)c1 (centres undefined),194 to 195
6,CCOC(=O)COc1cc(Cl)c(C(=O)c2ccc([N+](=O)[O-])cc2)c(Cl)c1,96 to 98
7,O=C(OCCCCc1ccc2[nH]c(=O)oc2c1)C(F)(F)F,100 to 103
8,Cc1cc2nc(O)c(-c3c(F)cc(F)cc3F)c(O)n2n1,304
9,O=C(CCC(=O)Oc1ccc([N+](=O)[O-])cc1)Oc1ccc([N+](=O)[O-])cc1,176 to 178
10,COc1ccc([C@]2(c3ccc(F)c(-c4cncnc4)c3)N=C(N)N(C)C2=O)cc1C,115
11,O=C(c1ccccc1)C1CCN(Cc2cncc(-c3ccccc3)c2)CC1,91 to 93
12,CCCCCCc1sc(C(N)=O)c2c1-c1nn(C)cc1CC2,194 to 195
13,CCSc1nccn1N1CCN(c2ccc(OC)cc2)CC1,112
14,CCOC(=S)c1ccc(C)c(-c2cc(C)no2)c1C,72 to 74
15,COc1ccc(C(=O)c2ccc3[nH]c(=O)nc(-c4cccc(Cl)c4)c3c2)cc1,248
16,O=C1CCCC2=C1C(c1ccccc1)C1=C(CCCC1)N2 (centres undefined),252 to 254
17,COC(=O)c1ccc(Cl)cc1NC(=O)CSc1ccc(O)cc1,165 to 168
18,CC(=O)SCC(Cc1cccnc1)C(=O)Nc1cccc(C(=O)O)c1 (centres undefined),> 200
19,Cc1ccc(N)c(S)c1,90
20,CCOC(=O)N1Cc2sc3ncn(CCN4CCN(c5ccccc5OC)CC4)c(=O)c3c2C1,153 to 155
21,O=C1CC(c2cccc(-c3ocnc3C(=O)NCCO)c2)=Nc2ccc(-n3cccc3)cc2N1,228 to 230
22,CCOC(=O)c1cnn2c(NCc3ccc(-c4ccccc4C#N)cc3)ccnc12,148 to 150
23,COc1ccc(N(N=Cc2ccccc2)C(=O)c2ccccc2)cc1,151 to 153

row,Structure (SMILES),melting point [°C]
1,CCOC(=O)C1=C(COCCNC(=O)n2ccnc2)NC(C)=C(C(=O)OC)C1c1ccccc1Cl (centres undefined),149 to 151
2,C#Cc1c(C#N)nn(-c2c(Cl)cc(C(F)(F)F)cc2Cl)c1Cl,109 to 110
3,COc1ccc(CC(=O)Cc2c(OC)cc(OC)c(CC=C(C)C)c2OCC(=O)O)cc1,102
4,COc1ccccc1C1C(C#N)=C(c2ccccc2)Nc2n[nH]cc21 (centres undefined),206
5,NC(CF)(Cc1ccc(O)c(O)c1)C(=O)O (centres undefined),230
6,COc1ccc(C=NCC(OC)OC)cc1OC,50 to 52
7,CCOC(=O)c1[nH]nnc1Nc1ccc(C)cc1,129 to 130
8,CC(C)(C)CC(=O)Nc1ccc2oc3c(c2c1)CCCCC3,182 to 183
9,Cc1ccc(Oc2ccc(NN)cc2)c(O)c1,145 to 148
10,CCC(=O)Nc1c(-n2cncn2)cnn1-c1c(Cl)cc(C(F)(F)F)cc1Cl,167 to 169
11,COc1cc(C(=O)c2cnc3ccccc3c2)ccc1OCc1ccccc1,110 to 111
12,COc1ccc(O)c(Br)c1,37 to 38
13,CCCCCSCCSCCSCCCCC,< 50
14,N#CC1CN1C(=O)CCC(N)=O (centres undefined),68 to 72
15,Cc1cc(CC(Cc2cc(C)c(O)c(C(C)(C)C)c2)(C(=O)OC2CC(C)(C)N(C)C(C)(C)C2)C(=O)OC2CC(C)(C)N(C)C(C)(C)C2)cc(C(C)(C)C)c1O,150
16,O=C(O)c1ccc2oc3ccccc3c2c1,172 to 173
17,COC(=O)[C@@H]1C[C@H](OC(=O)Nc2ccc([N+](=O)[O-])cc2)C(=O)[C@H]2[C@@]1(C)CC[C@H]1C(=O)O[C@H](c3ccoc3)C[C@]21C,251 to 253
18,COCOc1c(NC(=O)N(CCCCCC(=O)O)c2ccccc2)cc(OC)cc1C(C)(C)C,109 to 111
19,Cc1nc(CCCCn2cnc3c2c(=O)n(C)c(=O)n3C)no1,131 to 132
20,COc1ccc(C(=O)c2ccc(OCc3ccccc3)nc2)c(OC(C)(C)C(=O)OC(C)(C)C)c1,58 to 60
21,Cc1oc(-c2ccco2)nc1COc1ccc(COc2nn(Cc3ccc(OCc4nc(-c5ccco5)oc4C)cc3)cc2C(=O)O)cc1,144 to 145
22,COC(=O)CCSc1c(C(N)=O)sc2ccc(OC)cc12,142 to 144
23,CON=C(c1ncon1)c1ccccc1COc1ccc(Cl)cc1,107 to 108
